{
  "source": "ChEMBL document CHEMBL3792313",
  "about": "“Rational design, synthesis and 2D-QSAR study of novel vasorelaxant active benzofuran-pyridine hybrids” (Bioorg Med Chem Lett, 2016)",
  "note": "Structures can show the parent of a compound that is named as a salt.",
  "data": [
    {"tested_on": "Thoracic aorta", "assay": "Vasodilative activity in isolated Wistar rat thoracic aorta assessed as inhibition of norepinephrine hydrochloride-induced contraction", "format": "functional, tissue-based", "units": {"IC50": "µM"}, "values": [
      {"smiles": "CCn1cc(-c2cc(-c3cc4ccccc4o3)nc(OC)c2C#N)c2ccccc21", "IC50": 299},
      {"smiles": "COc1nc(-c2cc3ccccc3o2)cc(-c2cccc3ccccc23)c1C#N", "IC50": 359},
      {"smiles": "CCOc1nc(-c2cc3ccccc3o2)cc(-c2cc(OC)ccc2OC)c1C#N", "IC50": 327},
      {"smiles": "CCOc1nc(-c2cc3ccccc3o2)cc(-c2ccc(C)o2)c1C#N", "IC50": 417},
      {"smiles": "CCOc1nc(-c2cc3ccccc3o2)cc(-c2ccc(C)cc2)c1C#N", "IC50": 290},
      {"smiles": "CCOc1nc(-c2cc3ccccc3o2)cc(-c2ccc(OC)cc2)c1C#N", "IC50": 204},
      {"smiles": "COc1nc(-c2cc3ccccc3o2)cc(-c2ccc3ccccc3c2)c1C#N", "IC50": 320},
      {"smiles": "CCOc1nc(-c2cc3ccccc3o2)cc(-c2ccc(Br)cc2)c1C#N", "IC50": 227},
      {"smiles": "COc1ccc(-c2cc(-c3cc4ccccc4o3)nc(OC)c2C#N)c(OC)c1", "IC50": 425},
      {"smiles": "COc1nc(-c2cc3ccccc3o2)cc(-c2cn(C)c3ccccc23)c1C#N", "IC50": 262},
      {"smiles": "COc1nc(-c2cc3ccccc3o2)cc(-c2ccc(C)o2)c1C#N", "IC50": 285},
      {"smiles": "COc1nc(-c2cc3ccccc3o2)cc(-c2ccc(Cl)cc2)c1C#N", "IC50": 286},
      {"smiles": "COc1nc(-c2cc3ccccc3o2)cc(-c2cccs2)c1C#N", "IC50": 163},
      {"smiles": "CCOc1nc(-c2cc3ccccc3o2)cc(-c2cccs2)c1C#N", "IC50": 308},
      {"smiles": "CCOc1nc(-c2cc3ccccc3o2)cc(-c2ccccc2)c1C#N", "IC50": 310},
      {"smiles": "CCOc1nc(-c2cc3ccccc3o2)cc(-c2ccc(N(C)C)cc2)c1C#N", "IC50": 338},
      {"smiles": "COc1ccc(-c2cc(-c3cc4ccccc4o3)nc(OC)c2C#N)cc1", "IC50": 262},
      {"smiles": "COc1nc(-c2cc3ccccc3o2)cc(-c2ccc(F)cc2)c1C#N", "IC50": 321},
      {"smiles": "CCOc1nc(-c2cc3ccccc3o2)cc(-c2cc(OC)c(OC)c(OC)c2)c1C#N", "IC50": 365},
      {"smiles": "CCOc1nc(-c2cc3ccccc3o2)cc(-c2ccc(Cl)cc2)c1C#N", "IC50": 221},
      {"smiles": "COc1nc(-c2cc3ccccc3o2)cc(-c2ccc(C)cc2)c1C#N", "IC50": 266},
      {"smiles": "COc1ccc(OC)c(-c2cc(-c3cc4ccccc4o3)nc(OC)c2C#N)c1", "IC50": 246},
      {"smiles": "COc1nc(-c2cc3ccccc3o2)cc(-c2ccc(N(C)C)cc2)c1C#N", "IC50": 278},
      {"smiles": "COc1nc(-c2cc3ccccc3o2)cc(-c2ccc(Cl)cc2Cl)c1C#N", "IC50": 322},
      {"smiles": "CCOc1nc(-c2cc3ccccc3o2)cc(-c2cccc3ccccc23)c1C#N", "IC50": 344},
      {"smiles": "COc1cc(-c2cc(-c3cc4ccccc4o3)nc(OC)c2C#N)cc(OC)c1OC", "IC50": 310},
      {"smiles": "COc1nc(-c2cc3ccccc3o2)cc(-c2ccc(Br)cc2)c1C#N", "IC50": 298},
      {"smiles": "CCOc1nc(-c2cc3ccccc3o2)cc(-c2cn(C)c3ccccc23)c1C#N", "IC50": 327},
      {"smiles": "CCOc1nc(-c2cc3ccccc3o2)cc(-c2cn(CC)c3ccccc23)c1C#N", "IC50": 358},
      {"smiles": "COc1nc(-c2cc3ccccc3o2)cc(-c2ccccc2)c1C#N", "IC50": 232},
      {"smiles": "CCOc1nc(-c2cc3ccccc3o2)cc(-c2ccc(Cl)cc2Cl)c1C#N", "IC50": 442},
      {"smiles": "CCOc1nc(-c2cc3ccccc3o2)cc(-c2ccc(OC)cc2OC)c1C#N", "IC50": 488},
      {"smiles": "CCOc1nc(-c2cc3ccccc3o2)cc(-c2ccc3ccccc3c2)c1C#N", "IC50": 423},
      {"smiles": "CCOc1nc(-c2cc3ccccc3o2)cc(-c2ccc(F)cc2)c1C#N", "IC50": 396},
      {"smiles": "CCCCc1oc2ccccc2c1C(=O)c1cc(I)c(OCCN(CC)CC)c(I)c1", "note": "[AMIODARONE HYDROCHLORIDE]", "IC50": 312}
    ]}
  ]
}
